According to PubChem BioAssay AID509:

Molecular target: Peroxisomal multifunctional enzyme type 2 (Homo sapiens) (UniProt P51659)
Assay: HSD17B4 binders by thermal shift, biophysical, DSF, SYPRO orange, recombinant protein (AID 509)
Conditions: protein 2 µM, buffer 10 mM HEPES, pH 7.5, NaCl 150 mM, stronger effect = higher value

Sequence of Peroxisomal multifunctional enzyme type 2 (Homo sapiens) (P51659 whole entry, looked up): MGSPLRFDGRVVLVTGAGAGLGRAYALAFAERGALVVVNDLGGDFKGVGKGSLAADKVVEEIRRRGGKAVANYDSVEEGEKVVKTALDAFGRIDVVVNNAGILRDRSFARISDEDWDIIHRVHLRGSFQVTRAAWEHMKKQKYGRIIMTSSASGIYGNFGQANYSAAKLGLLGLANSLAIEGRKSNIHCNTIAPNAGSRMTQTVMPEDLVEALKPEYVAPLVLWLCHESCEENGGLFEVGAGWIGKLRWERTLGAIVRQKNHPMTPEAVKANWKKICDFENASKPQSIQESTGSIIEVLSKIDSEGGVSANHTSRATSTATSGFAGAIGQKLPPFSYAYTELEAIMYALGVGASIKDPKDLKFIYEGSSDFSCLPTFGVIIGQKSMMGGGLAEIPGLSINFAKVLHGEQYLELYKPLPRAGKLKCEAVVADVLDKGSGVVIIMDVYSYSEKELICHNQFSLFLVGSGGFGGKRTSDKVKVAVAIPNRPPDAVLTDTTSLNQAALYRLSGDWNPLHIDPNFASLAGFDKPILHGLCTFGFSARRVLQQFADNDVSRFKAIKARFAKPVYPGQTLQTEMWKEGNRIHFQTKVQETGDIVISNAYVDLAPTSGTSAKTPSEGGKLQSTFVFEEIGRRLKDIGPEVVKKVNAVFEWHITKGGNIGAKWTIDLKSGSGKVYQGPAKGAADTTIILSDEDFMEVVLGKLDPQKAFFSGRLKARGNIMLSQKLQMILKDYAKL

Tm shift (at 10 µM) | Structure (SMILES) | Tm shift (at 100 µM)
2.1 Celsius | Oc1cc(O)c2cc(O)c(-c3ccc(O)c(O)c3)[o+]c2c1 | –
– | O=C1C2(Cl)C3(Cl)C4(Cl)C(Cl)(Cl)C5(Cl)C3(Cl)C1(Cl)C5(Cl)C24Cl (configuration not stated) | 3 Celsius
